Measurements reported in patent US8278355B2, “Isovaline for treatment of pain” (Therexcell Pharma Inc., priority 2006, dated 2012).

What was measured:
[1] = tested on: pain of formalin injection in the mouse foot; test: Formalin hindpaw licking test, lumbar intrathecal pre-treatment; format: in vivo, mice; conditions: for activity against peripherally induced pain, administered to the lumbar cord: overall summary; for cumulative paw licking / licking, early phase (reflecting acute pain) / licking, late phase (reflecting chronic pain): 250 micromolar in 5 microliters, lumbar intrathecal; for cumulative paw licking: 5 minutes before formalin, 40 min, p-value<0.001; for licking, early phase (reflecting acute pain) / licking, late phase (reflecting chronic pain): FIG. 4
Protocol: The effects of compound (Ib) and (Ic) were determined in the acute and chronic peripheral pain model according to Kolesnikov, Cristea, Oksman, Torosjan, and Wilson (Brain Research 17: 217-223, 2004). Use of this model involves pre-treatment with the test compound and injection of formalin (5% in 20 microliters) into the right hindpaw of mice. Groups of mice (n=10) were injected intrathecally into the lumbar segment with compound (Ib) or (Ic) at 250 micromolar in 5 microliters, at 5 minutes prior to subcutaneous formalin injection into the right hindpaw. The mice were monitored for 40 min for licking activity and assessed according to the method of Abbott, Franklin, and Westbrook (Pain 60: 91-102, 1995).

[2] = Overall behavioral observation of the animals studied; format: in vivo; conditions: all animals studied
[3] = tested on: strychnine-induced allodynia; format: in vivo, mouse; conditions: for effect on hyperalgesia or allodynia (vocalization, flinching, scratching): 4 millimolar with strychnine 200 micromolar in 5 microliters aCSF, p<0.01; for effect on hyperalgesia or allodynia (vocalization, flinching, scratching) / behavior of mice treated with compound and strychnine / side effects in treated animals: cisterna magna; for behavior of mice treated with compound and strychnine: 4 millimolar with strychnine 200 micromolar, compared with aCSF control; for side effects in treated animals: 4 millimolar; for analgesia against trigeminal hyperalgesia or allodynia compared with carbamazepine / analgesia against trigeminal hyperalgesia or allodynia compared with morphine: overall summary
Protocol: Strychnine when administered alone to the intact rodent mimics the allodynia of chronic pain resulting from damage to inhibitory amino acid functions in the central nervous system.
In the present example, injections into the cisterna magna of the mouse were performed as described by Reijneveld, Taphoorn, and Voerst (Journal of Neurooncology 42: 137-142, 1999). Each series of experiments consisted of 6 to 9 pairs of mice. […] In each session, two mice were injected with the strychnine solution within one minute of each other. […] A continuous video recording was made of all responses.

[4] = tested on: strychnine-induced allodynia; conditions: lumbar intrathecal
Protocol: Injections into the 6th lumbar intrathecal space were performed according to the method of Hylden and Wilcox (Brain Research 217: 212-215, 1981). The total volume used for injection in all experiments was 5 microliters of artificial cerebrospinal fluid (aCSF). In mice anesthetized with isoflurane, strychnine at 200 micromolar in 5 microliters of aCSF was injected either alone or in combination with compound (Ia) at concentrations of 4 to 8 millimolar in a total volume of 5 microliters of aCSF. In each experiment 2 mice were injected with 5 microliters of solution within one minute of each other. One of the mice received strychnine 200 micromolar in aCSF (control) and the other received the same volume with strychnine 200 micromolar in combination with the test compound (Ia). The mice were placed in a container designed such that they were unaware of the other, but could be simultaneously observed. The presence of flinching, scratching or vocalization in response to touching with a fine hair was noted every two minutes. Responses limited to lumbar segments 5 and 6, as well as originating from more caudal nerve distribution were considered as positive. A continuous video recording was made of all responses. Each experiment consisted of 6 to 9 pairs of mice. The blinded observer decided which animal had the greatest response to stimuli. A Wilcoxon signed rank test was used to determine the statistical significance of the results.

[5] = tested on: pain of formalin injection in the mouse foot; test: Formalin hindpaw licking test, intravenous pre-treatment; format: in vivo, mice; conditions: for analgesia in peripherally induced pain, intravenous administration: overall summary
Protocol: Groups of mice (n=10) were injected intravenously with a dose of 500 mg/kg of compound (Ia) at 10 minutes prior to subcutaneous formalin injection into the right hindpaw. After the injection of formalin (5% in 20 microliters), the animals were monitored for 40 min for licking activity.

[6] = Rotarod test (ataxia, central toxicity) after intravenous administration; conditions: for rotarod performance versus control saline and pre- versus post-injection: 500 mg/kg, 3 ml/kg, tail vein, 10 mice per group, ANOVA p<0.05
Protocol: Changes in central nervous system behavior viewed as ataxia were measured using the rotarod procedure in mice, described by Vaupel, McConn, and Cone (Journal of Pharmacology & Experimental Therapeutics, 230: 20-27, 1984). A 27-mm diameter rod was rotated at 5 rpm. At least 1 day before testing, mice were trained in three sessions on the rod for two consecutive 5 minute trials, separated by a 5 minute rest period. During the tests, each trial on the rotarod was limited to a 120 seconds maximum. For all experiments two control trials obtained 6 minutes apart preceded the injection (500 mg/kg, 3 ml/kg) of compound (Ib) or (Ic) into the tail vein. Each mouse was then given 2 trials, with 6 minutes between trials after the injection.
The data were analyzed as means±SEM of 10 mice in each group, and examined by analysis of variance (ANOVA) for multiple comparisons with the single control group. Level of significance was set to 5% (p<0.05).

SMILES	activity against peripherally induced pain, administered to the lumbar cord [1]	behavioral toxicity [2]	effect on hyperalgesia or allodynia (vocalization, flinching, scratching) ([3]; FIG. 1)	behavior of mice treated with compound and strychnine [3]	side effects in treated animals [3]	analgesia against trigeminal hyperalgesia or allodynia compared with carbamazepine [3]	analgesia against trigeminal hyperalgesia or allodynia compared with morphine [3]	cumulative paw licking [1]	licking, early phase (reflecting acute pain) [1]	licking, late phase (reflecting chronic pain) [1]	rotarod performance versus control saline and pre- versus post-injection [6]	analgesia in peripherally induced pain, intravenous administration [5]	further results
CCC(C)(N)C(=O)O (racemic) [(Ia), Isovaline (2-Amino-2-methylbutanoic acid)]	active against acute and chronic pain induced peripherally	no observed behavioral toxicity	a great reduction and a total blockade of hyperalgesia or allodynia	identical to the mice which received the aCSF control injection without strychnine	no side effects such as sedation, movement disorders, or abnormal behavior	surpassed the analgesia produced by carbamazepine	to a much greater degree than the tested reference opioid, morphine	–	–	–	–	–	pairs of mice in which blinded observer identified presence of compound ([4]; 8 millimolar plus strychnine 200 micromolar, 5 microliter, FIG. 3, p<0.01): 6 out of 6; effect of sole administration (without strychnine) ([4]; 25 microliters at 10 millimolar, no strychnine): did not produce a significant result; duration of effect [4]: at least 60 minutes; sedation, movement disorders, abnormal behaviour in treated animals ([4]; 8 millimolar): no sedation, movement disorders, or abnormal behaviour; behavior of treated mice without concomitant strychnine injection ([4]; no strychnine, compared with aCSF control): identical to those mice that received aCSF control injection; licking, late phase (reflecting chronic pain) ([5]; 500 mg/kg intravenously, 10 minutes before formalin, 10 to 40 minutes, FIG. 5, p<0.001): significantly reduced
CCC(C)(N)C(=O)O (single isomer, unassigned) [(Ib), Isovaline (2-Amino-2-methylbutanoic acid)]	active against acute and chronic pain induced peripherally	no observed behavioral toxicity	The same effects were obtained	identical to the mice which received the aCSF control injection without strychnine	no side effects such as sedation, movement disorders, or abnormal behavior	surpassed the analgesia produced by carbamazepine	to a much greater degree than the tested reference opioid, morphine	significantly reduced	significantly reduced	significantly reduced	did not show significant differences	effective in producing analgesia	–
CCC(C)(N)C(=O)O (single isomer, unassigned) [(Ic), Isovaline (2-Amino-2-methylbutanoic acid)]	active against acute and chronic pain induced peripherally	no observed behavioral toxicity	The same effects were obtained	identical to the mice which received the aCSF control injection without strychnine	no side effects such as sedation, movement disorders, or abnormal behavior	surpassed the analgesia produced by carbamazepine	to a much greater degree than the tested reference opioid, morphine	significantly reduced	significantly reduced	significantly reduced	did not show significant differences	effective in producing analgesia	–
CCC(C)(N)C(=O)O (centres unmarked) [Formula (I), Isovaline (2-Amino-2-methylbutanoic acid)]	–	–	–	–	–	–	–	–	–	–	–	–	central nervous system toxicity, such as ataxia or other disturbances in conscious behavior ([6]; mouse, in vivo): no evidence; blood-brain-barrier crossing ([5]; inferred from analgesia after intravenous administration): crosses the blood-brain-barrier
NC(=O)N1c2ccccc2C2OC2c2ccccc21 (centres unmarked) [carbamazepine epoxide, reference compound]	–	–	–	–	–	–	–	–	–	–	–	–	analgesic effect ([3]; 30 mg/kg body weight, FIG. 1): an analgesic effect
CN1CC[C@]23c4c5ccc(O)c4O[C@H]2[C@@H](O)C=C[C@H]3[C@H]1C5 [morphine, reference compound]	–	–	–	–	–	–	–	–	–	–	–	–	responses to intracisternal injections (analgesia) ([3]; 1 mg/kg body weight, intracisternal, FIG. 1): poor or absent
